Patent US8263601B2, “Deuterium substituted xanthine derivatives” (CoNCERT Pharmaceuticals, Inc., priority 2009, dated 2012)
Where two headings read alike, the source gives them in different places. Values belong to the compound of their own block, whether it stands above or below them.

Tests used:
in vivo = assay: in vivo; design: species or system male beagle dogs; details: dog, po, 2.5 mg/kg
Procedure: Metabolism of the title compounds were studied following oral administration to male beagle dogs. Blood samples were removed from dosed dogs at various time points and plasma isolated therefrom. The plasma samples were used for the determination of plasma drug levels by LC-MS/MS (liquid chromatography with tandem mass spectrometry) for estimating pharmacokinetic parameters.
Compound 409 and pentoxifylline were dissolved separately in saline to a concentration of 4 mg/mL. A 1:1 (v/v) mixture of the two solutions was prepared to yield a solution having a final concentration of 2 mg/mL of both Compound 409 and pentoxifylline.
Two male beagle dogs were fasted overnight and then orally dosed via gavage with 2.5 mg/kg of Compound 409 and pentoxifylline using the mixture described above. Blood samples (1.5-2 mL) were collected via the femoral vein at 0 min (pre-dose), 15 min, 30 min, 45 min, 1 hr, 1.5 hr, 2 hr, 3 hr, 4 hr, 6 hr, 8 hr, 10 hr, 12 hr, 16 hr and 24 hr post-dose. Blood was stored on ice prior to centrifugation to obtain plasma samples. Centrifugation took place within 1 hour of blood collection to harvest plasma (maximum volume). The plasma was decanted immediately and frozen/stored at −70° C. until analysis.

[1] = Pharmacokinetic study of 435(S) and other representative compounds in chimps after oral dosing (Example 40); format: in vivo; details: species named in label measured in plasma
Procedure: 435(S) and representative compounds 121(S), 137(S), 421(S) and 437(S) were separately dissolved in warm (65° C.) water at a concentration [[of 10 mg/mL]]. The same protocol described for Example 39 was then followed for each representative compound.

[2] = Pharmacokinetic study in rats of (S)-M1 and Compound 435(S) after oral dosing (Example 37); format: in vivo, male Sprague-Dawley rats; details: oral gavage single 5 mg/kg dose, 1:1 mixture of (S)-M1 and 435(S), species named in label measured in plasma, −1D and −2D species included
Procedure: (§1) (S)-M1 and Compound 435(S) (a deuterated form of (S)-M1) were separately dissolved in saline at a concentration of 10 mg/mL. A 1:1 mixture of the two compounds was then prepared containing a final concentration of 5 mg/mL of each compound, which was used for intravenous administration. For oral administration the mixture was further diluted in saline to a final concentration of 1 mg/mL for each compound.
(§2) Three male Sprague-Dawley rats were used in each of the oral and intravenous studies. Animals were fasted overnight prior to administration of compounds. Intravenous administration was achieved by bolus injection of a single 5 mg/kg dose of the 1:1 combination into the cannulated jugular vein of the rats. Cannulation was achieved the day prior to dosing on rats that had been placed under anesthesia using ketamine (IM 30 mg/kg). Oral administration was achieved by oral gavage of a single 5 mg/kg dose. Blood samples (250 μL) were collected from the dosed rats at various times post-dosing (2 min, 5 min, 10 min, 20 min, 30 min, 1 hr, 2 hr, 3 hr, 4 hr, 5 hr, 6 hr) by retro-orbital sampling of the rats temporarily anesthetized with isoflurane. Blood samples were placed in tubes containing K2-EDTA and stored on ice until centrifuged. Within 30 minutes of collection, plasma was isolated by centrifugation. A 100-μL aliquot was removed, mixed with 200 μL of acetonitrile and stored at −20° C. until further analysis by LC-MS/MS using an Applied Bio-systems API 4000 mass spectrometer.
(§3) Samples were analyzed for the presence of the administered compound, the corresponding ketone (pentoxifylline and Compound 409) and the corresponding M5 metabolite. Samples (10 μL) were injected into a Zorbax SB-C8 (Rapid Resolution) column (2.1×30 mm, 3.5 μm). The initial mobile phase condition was 100% A (10 mM ammonium acetate in water) and 0% B (methanol) with a flow rate at 0.5 mL/min. Mobile phase B was allowed to reach 55% in 3 minutes and from 55% to 90% in 1 minute before ramping back to 0% in another minute. The overall run time was 5 minutes. For pentoxifylline and its M1 and M5 metabolites, the precursor/product ion pairs were set at m/z 281/193 (M1), m/z 279/181 (pentoxifylline), and m/z 267/221 (M5).
(§4) For Compound 435(S) and Compound 409 more than one ion pair was set up for to detect species that arose from loss of deuterium. […] This loss of deuterium appears to occur both in vivo and ex vivo by an unknown mechanism. The addition of acetonitrile to serum samples was used to stop any additional ex vivo deuterium loss prior to analysis. Typically, no more than 2 deuterium atoms were replaced by hydrogen. For Compound 435(S), there is a deuterium at the methinyl position which was lost upon oxidation to the keto-compound 409. Reduction of 409 to an M1 metabolite introduced a proton at the methinyl position. When serum from animals dosed with 435(S) were analyzed to quantitate administered compound and metabolites, compound species were included with one and two less side chain deuteriums in the total amounts (referred to hereinafter as the “−1D” and the “−2D” species). Thus, for Compound 435(S) and Compound 409 separate ion pairs were set up to detect the compound and its corresponding −1D and −2D species. For Compound 435(S) three ion pairs were detected: m/z 291/197, 290/197, and […]. For Compound 409 ion pairs of m/z 288/186, 287/186 and 286/186 were monitored. Inclusion of −1D and −2D species in the measurements of Compound 409 and Compound 435(S) more accurately quantitates the total active species and is reasonable based on what is known about the metabolism and activities of pentoxifylline and its M-1 metabolites. Increased plasma exposure to Compound 409 or any M-1 metabolites of 409 would be desirable. This includes the −1D and −2D species.
(§5) [drawing 78] which has no deuterium on its acid side chain, only one ion pair was used at m/z 271/225. The internal standard for the analysis was indiplon.

[3] = Pharmacokinetic study in rats of (S)-M1 and Compound 435(S) after intravenous dosing (Example 37); format: in vivo, male Sprague-Dawley rats; details: intravenous bolus single 5 mg/kg dose of 1:1 combination of (S)-M1 and 435(S), species named in label measured in plasma
Procedure: as §1, §2, §3, §4, §5

[4] = Pharmacokinetic study of pentoxifylline and Compound 435(S) in chimps after oral dosing (Example 38); format: in vivo; details: in vivo, po, 75 mg
Procedure: Pentoxifylline and Compound 435(S) were separately dissolved in warm (65° C.) saline at a concentration at 10 mg/mL. A 1:1 mixture of the two compounds was then prepared containing a final concentration of 5 mg/mL of each compound and the mixture was then sterile filtered through a 0.2-μm filter.
Two chimps (one male and one female) were used in each of the oral and intravenous studies. Animals were fasted overnight prior to administration of compounds. All animals were sedated with ketamine (approximately 10 mg/kg) and/or telazol (approximately 5 mg/kg) prior to dosing. Intravenous administration was achieved by IV infusion of 75 mg of each compound (15 mL total dosing solution) over 10 minutes. Oral administration was achieved by oral gavage of a single 75 mg dose of each compound (15 mL total dosing solution). Blood samples (6 mL) were collected from the dosed chimps at various times prior to and after dosing. For intravenous administrations blood samples were collected at 0 min (preinfusion), 5 min, 9.5 min (immediately before the end of the infusion), then 6, 15, 30 and 45 min, and 1, 2, 4, 6, 8, 10 and 12 hr after the infusion is stopped. For oral administrations, blood samples were collected at 0 min (predose), 15 and 30 min, and 1, 1.5, 2, 4, 6, 8, 10 and 12 hr postdose.
Blood samples were placed in tubes containing sodium heparin, mixed and stored on ice until centrifuged. Within 30 minutes of collection, plasma was isolated by centrifuging the blood samples and removing an aliquot (200 μL) of the resulting plasma. Each 200-μL aliquot of plasma was mixed with 400 μL acetonitrile and stored at −70° C. until further analysis by LC-MS/MS using an Applied Bio-systems API 4000 mass spectrometer.
The analysis of all samples by LC-MS/MS was performed as described above for the rat plasma samples in Example 37.

[5] = Pharmacokinetic study of pentoxifylline and Compound 435(S) in chimps after oral dosing (Example 39); format: in vivo; details: oral gavage 65 mg each of pentoxifylline and 435(S) in water, species named in label measured in plasma
Procedure: Pentoxifylline and Compound 435(S) were tested according to a protocol similar to the Oral Dosing protocol followed in Example 38, except that (a) the compounds were separately dissolved in water rather than saline; (b) the mixture of the two compounds was not sterile filtered; and (c) oral administration was achieved by oral gavage of a single 65 mg dose of each compound (13 mL total dosing solution).

[6] = female, plasma, po, 65 mg, Table 17 iv): female chimp, 435(S) and 437(S), read-out: AUC0-12 Female
[7] = female, plasma, po, 65 mg, Table 17 iii): female chimp, 435(S) and 421(S), read-out: AUC0-12 Female
[8] = male, plasma, po, 65 mg, Table 17 iii): male chimp, 435(S) and 421(S), read-out: AUC0-12 Male

- AUC(0-t) ([1]; female, plasma, po, 65 mg, Table 17 ii): female chimp, 435(S) and 137(S), read-out: AUC0-12 Female): 163 ng·h/mL
- AUC(0-t) ([1]; male, plasma, po, 65 mg, Table 17 ii): male chimp, 435(S) and 137(S), read-out: AUC0-12 Male): 63 ng·h/mL
Compound: [2H]C([2H])([2H])[C@]([2H])(O)C([2H])([2H])CCCn1c(=O)c2c(ncn2C)n(C)c1=O [Compound 137(S), (S)-1-(4,4,5,6,6,6-d6-5-Hydroxyhexyl)-3,7-dimethyl-1H-purine-2,6(3H,7H)-dione]

- AUC(0-t) [1, 6]: 1180 ng·h/mL
- AUC(0-t) ([1]; male, plasma, po, 65 mg, Table 17 iv): male chimp, 435(S) and 437(S), read-out: AUC0-12 Male): 757 ng·h/mL
Compound: [2H]c1nc2c(c(=O)n(CCCC([2H])([2H])[C@@]([2H])(O)C([2H])([2H])[2H])c(=O)n2C)n1C [Compound 437(S), (S)-8-d1-1-(4,4,5,6,6,6-d6-5-Hydroxyhexyl)-3,7-dimethyl-1H-purine-2,6(3H,7H)-dione]

- AUC(0-t) ([1]; female, plasma, po, 65 mg, Table 17 i): female chimp, 435(S) and 121(S), read-out: AUC0-12 Female): 105 ng·h/mL
- AUC(0-t) ([1]; male, plasma, po, 65 mg, Table 17 i): male chimp, 435(S) and 121(S), read-out: AUC0-12 Male): 304 ng·h/mL
Compound: [2H]C([2H])([2H])[C@H](O)C([2H])([2H])CCCn1c(=O)c2c(ncn2C)n(C)c1=O [Compound 121(S), S-1-(4,4,6,6,6-d5-5-Hydroxyhexyl)-3,7-dimethyl-1H-purine-2,6(3H,7H)-dione]

- AUC(0-t) [1, 7]: 634 ng·h/mL
- AUC(0-t) [1, 8]: 743 ng·h/mL
Compound: [2H]c1nc2c(c(=O)n(CCCC([2H])([2H])[C@@H](O)C([2H])([2H])[2H])c(=O)n2C)n1C [Compound 421(S), (S)-1-(4,4,6,6,6-d5-5-hydroxyhexyl)-3,7-dimethyl-8-d-1H-purine-2,6(3H,7H)-dione]

Further lines, the compound ahead of its results:

Compound: pentoxifylline [reference compound]
- Ave. AUC (in vivo): 448 ng·h/mL
- Ave. Cmax (in vivo): 784 ng/mL

Compound: [2H]c1nc2c(c(=O)n(CCCC(=O)O)c(=O)n2C)n1C [Deuterated M5 (M5b)]
- AUC(0-t) [1, 7]: 350 ng·h/mL
- AUC(0-t) [1, 6]: 416 ng·h/mL
- AUC(0-t) [1, 8]: 447 ng·h/mL

Compound: Cn1cnc2c1c(=O)n(CCCC(=O)O)c(=O)n2C [Compound M5, reference compound]
- AUC0-∞ [2]: 2985 ± 601 ng·h/mL
- AUC0-∞ [3]: 1795 ± 521 ng·h/mL
- AUC0-∞ Female [4]: 1868 ng·h/mL
- AUC0-∞ Male [4]: 1456 ng·h/mL
- AUC0-12 Female ([5]; female chimp): 811 ng·h/mL
- AUC0-12 Male ([5]; male chimp): 817 ng·h/mL
- AUC0-12 Female ([1]; Table 17 i): female chimp, 435(S) and 121(S)): 653 ng·h/mL
- AUC0-12 Male ([1]; Table 17 i): male chimp, 435(S) and 121(S)): 630 ng·h/mL
- AUC0-12 Female ([1]; Table 17 ii): female chimp, 435(S) and 137(S)): 635 ng·h/mL
- AUC0-12 Male ([1]; Table 17 ii): male chimp, 435(S) and 137(S)): 539 ng·h/mL
